{"source": "ChEMBL document CHEMBL3988442", "about": "“University of Dundee, Small-Polar-MMV Screening Library” (2021)", "key": {"[1]": {"experiment": "microbe, parasite or virus in culture", "details": "Mycobacterium tuberculosis, 96 h, read-out: pIC50 (converted)"}, "[2]": {"tested_on": "Mycobacterium tuberculosis", "experiment": "Cornell M. t heat shock assay", "type": "functional, organism-based", "details": "for IC50: Mycobacterium tuberculosis"}, "[3]": {"experiment": "In vitro enzyme assay to detect hydrolysis of chlorophenol red-beta-D-[…] directly proportional to the number of Toxoplasma stably expressing beta-galactosidase", "type": "functional, organism-based, Toxoplasma gondii", "details": "for IC50: Toxoplasma gondii"}, "ClpP1P2": {"molecular_target": "ClpP1P2 (Mycobacterium tuberculosis (strain ATCC 25618 / H37Rv), UniProt P9WPC3+P9WPC5)", "sequence (P9WPC5 whole entry)": "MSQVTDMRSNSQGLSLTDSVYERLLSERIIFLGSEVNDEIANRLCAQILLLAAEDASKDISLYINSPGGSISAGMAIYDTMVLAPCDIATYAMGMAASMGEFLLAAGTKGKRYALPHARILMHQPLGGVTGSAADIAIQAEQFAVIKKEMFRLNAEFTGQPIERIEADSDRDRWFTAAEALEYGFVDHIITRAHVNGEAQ", "sequence (P9WPC3 whole entry)": "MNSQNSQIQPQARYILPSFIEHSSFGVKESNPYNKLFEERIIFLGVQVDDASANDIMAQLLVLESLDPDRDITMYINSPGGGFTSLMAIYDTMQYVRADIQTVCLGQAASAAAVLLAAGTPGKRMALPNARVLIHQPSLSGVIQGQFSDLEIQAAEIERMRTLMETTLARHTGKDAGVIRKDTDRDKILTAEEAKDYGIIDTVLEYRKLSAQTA", "experiment": "in vitro assay to detect presence of AMC directly proportional to the activity of ClpP1P2. GHDDI collaboration.", "type": "functional"}, "[4]": {"experiment": "microbe, parasite or virus in culture", "details": "Mycobacterium tuberculosis, 72 h, read-out: pIC50 (converted)"}, "[5]": {"molecular_target": "T1, Coenzyme A biosynthesis bifunctional protein CoaBC (Mycobacterium tuberculosis (strain ATCC 25618 / H37Rv), UniProt P9WNZ1)", "T1 sequence (P9WNZ1 whole entry)": "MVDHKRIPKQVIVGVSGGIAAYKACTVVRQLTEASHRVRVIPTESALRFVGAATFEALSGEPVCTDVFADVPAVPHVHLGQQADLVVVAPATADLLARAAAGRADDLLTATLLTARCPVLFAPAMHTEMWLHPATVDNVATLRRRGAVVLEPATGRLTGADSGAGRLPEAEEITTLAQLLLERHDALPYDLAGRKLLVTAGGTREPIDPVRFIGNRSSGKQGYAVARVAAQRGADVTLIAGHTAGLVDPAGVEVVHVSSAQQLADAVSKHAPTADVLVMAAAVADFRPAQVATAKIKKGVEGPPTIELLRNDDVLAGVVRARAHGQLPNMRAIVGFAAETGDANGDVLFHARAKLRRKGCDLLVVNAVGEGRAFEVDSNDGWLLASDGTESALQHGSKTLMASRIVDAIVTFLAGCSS", "experiment": "Biomol Green assay for MtCoaBC inhibitor, OD650 read", "type": "functional"}, "Plasmodium falciparum": {"tested_on": "Plasmodium falciparum", "experiment": "Calibr Malaria Delayed Death Assay SOP", "type": "functional, organism-based", "details": "for IC50: Plasmodium falciparum"}, "Leishmania donovani": {"tested_on": "Leishmania donovani", "experiment": "Leishmania intramacrophage assay", "type": "functional, organism-based", "details": "for IC50: Leishmania donovani"}, "Wolbachia pipientis": {"tested_on": "Wolbachia pipientis", "experiment": "Anti-Wolbachia Cell-Based Screen", "type": "functional", "details": "for IC50: Wolbachia pipientis"}, "Tryptophan--tRNA ligase": {"molecular_target": "Tryptophan--tRNA ligase (Mycobacterium tuberculosis (strain ATCC 25618 / H37Rv), UniProt P9WFT3)", "sequence (P9WFT3 whole entry)": "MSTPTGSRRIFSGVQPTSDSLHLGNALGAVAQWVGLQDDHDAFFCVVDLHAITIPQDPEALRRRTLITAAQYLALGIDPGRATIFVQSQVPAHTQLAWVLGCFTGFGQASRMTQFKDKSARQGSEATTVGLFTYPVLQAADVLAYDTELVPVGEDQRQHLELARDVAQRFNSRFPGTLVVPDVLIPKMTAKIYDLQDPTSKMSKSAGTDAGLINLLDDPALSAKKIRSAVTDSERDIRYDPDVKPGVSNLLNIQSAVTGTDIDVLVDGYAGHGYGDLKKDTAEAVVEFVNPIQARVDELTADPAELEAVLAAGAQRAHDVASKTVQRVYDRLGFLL", "experiment": "Biochemical assay for Mt-TrpRS", "type": "functional"}}, "note": "Several values for one entry are separate records, joined by “and”; a condition that tells them apart may be missing. Equal values may be shown once.", "data": [{"smiles": "CCN(CC)c1nc(Nc2cccc(C(C)O)c2)nc2ccccc12", "note": "(stereo not given)", "values": [{"measurement": "IC50", "setting": "[1]", "result": 22.9, "unit": "µM"}, {"measurement": "IC50", "setting": "[2]", "result": 12.2, "unit": "µM"}, {"measurement": "pIC50", "setting": "[3]", "result": 5.586}, {"measurement": "IC50", "setting": "[3]", "result": 2.08, "unit": "µM"}, {"measurement": "IC50", "setting": "ClpP1P2", "result": "> 100", "unit": "µM"}, {"measurement": "IC50", "setting": "[4]", "result": 25.7, "unit": "µM"}]}, {"smiles": "CCc1cc(=O)[nH]c(NC2CCN(S(=O)(=O)c3ccccc3)CC2)n1", "values": [{"measurement": "IC50", "setting": "[2]", "result": "> 100", "unit": "µM"}, {"measurement": "IC50", "setting": "[5]", "result": "> 30.2", "unit": "µM"}]}, {"smiles": "CN[C@@H]1CCC[C@@H](Oc2ccccc2Oc2ccc(C)cc2)[C@@H]1O", "values": [{"measurement": "IC50", "setting": "[1]", "result": "> 50.1", "unit": "µM"}, {"measurement": "pIC50", "setting": "[2]", "result": 4.304}, {"measurement": "IC50", "setting": "[2]", "result": 89.2, "unit": "µM"}, {"measurement": "IC50", "setting": "[4]", "result": 35.8, "unit": "µM"}, {"measurement": "pIC50", "setting": "Plasmodium falciparum", "result": 6.476}, {"measurement": "IC50", "setting": "Plasmodium falciparum", "result": 0.349, "unit": "µM"}, {"measurement": "pIC50", "setting": "Leishmania donovani", "result": 5.128}, {"measurement": "IC50", "setting": "Leishmania donovani", "result": 5.46, "unit": "µM"}]}, {"smiles": "c1ccc(CCN2CCCC2c2cccc(Nc3nccs3)n2)cc1", "note": "(stereo not given)", "values": [{"measurement": "pIC50", "setting": "[2]", "result": 4.565}, {"measurement": "IC50", "setting": "[2]", "result": 38.9, "unit": "µM"}, {"measurement": "IC50", "setting": "[5]", "result": "> 30.2", "unit": "µM"}, {"measurement": "pIC50", "setting": "Wolbachia pipientis", "result": 5.678}, {"measurement": "IC50", "setting": "Wolbachia pipientis", "result": 1.09, "unit": "µM"}]}, {"smiles": "Cc1cnc(Nc2cccc(C3CCCN3Cc3cn(C)nc3C)n2)s1", "note": "(stereo not given)", "values": [{"measurement": "pIC50", "setting": "[2]", "result": "5.045 and 4.742"}, {"measurement": "IC50", "setting": "[5]", "result": "> 30.2", "unit": "µM"}, {"measurement": "pIC50", "setting": "Wolbachia pipientis", "result": 5.174}, {"measurement": "IC50", "setting": "Wolbachia pipientis", "result": 5.37, "unit": "µM"}]}, {"smiles": "Cc1ccccc1CN1CCCC1c1cccc(Nc2nccs2)n1", "note": "(stereo not given)", "values": [{"measurement": "pIC50", "setting": "[2]", "result": 5.632}, {"measurement": "IC50", "setting": "[2]", "result": 1.93, "unit": "µM"}, {"measurement": "IC50", "setting": "[5]", "result": "> 30.2", "unit": "µM"}]}, {"smiles": "Cc1cccc(CN2CCCC2c2cccc(Nc3nccs3)n2)c1", "note": "(stereo not given)", "values": [{"measurement": "pIC50", "setting": "[2]", "result": 5.755}, {"measurement": "IC50", "setting": "[2]", "result": 2.41, "unit": "µM"}, {"measurement": "pIC50", "setting": "Plasmodium falciparum", "result": 5.988}, {"measurement": "IC50", "setting": "Plasmodium falciparum", "result": 1.01, "unit": "µM"}, {"measurement": "pIC50", "setting": "Wolbachia pipientis", "result": 5.856}, {"measurement": "IC50", "setting": "Wolbachia pipientis", "result": 1.87, "unit": "µM"}]}, {"smiles": "Oc1cc(C2CCCCN2Cc2cccs2)nc(-c2ccccn2)n1", "note": "(stereo not given)", "values": [{"measurement": "IC50", "setting": "[2]", "result": 17.3, "unit": "µM"}, {"measurement": "IC50", "setting": "[3]", "result": 2.42, "unit": "µM"}]}, {"smiles": "Cc1ccc(Oc2c(F)cccc2OC[C@@H](N)CC(C)C)cc1", "values": [{"measurement": "IC50", "setting": "[1]", "result": 25.5, "unit": "µM"}, {"measurement": "IC50", "setting": "[2]", "result": 25.1, "unit": "µM"}, {"measurement": "IC50", "setting": "[4]", "result": 23.4, "unit": "µM"}, {"measurement": "pIC50", "setting": "Leishmania donovani", "result": 5.171}, {"measurement": "IC50", "setting": "Leishmania donovani", "result": 12.4, "unit": "µM"}]}, {"smiles": "CC(C)C(NC(=O)c1cnc(N2CCOCC2)nc1)c1cccs1", "note": "(stereo not given)", "values": [{"measurement": "IC50", "setting": "[1]", "result": 48.9, "unit": "µM"}, {"measurement": "IC50", "setting": "[2]", "result": 48.2, "unit": "µM"}, {"measurement": "IC50", "setting": "[5]", "result": "> 30.2", "unit": "µM"}, {"measurement": "IC50", "setting": "[4]", "result": 44.9, "unit": "µM"}]}, {"smiles": "Fc1cccc(Nc2nc(N3CCCC3)nc3c2CNCC3)c1", "values": [{"measurement": "IC50", "setting": "[1]", "result": 18.8, "unit": "µM"}, {"measurement": "IC50", "setting": "[2]", "result": 25.8, "unit": "µM"}, {"measurement": "IC50", "setting": "[4]", "result": 23.6, "unit": "µM"}, {"measurement": "pIC50", "setting": "Leishmania donovani", "result": 5.271}, {"measurement": "IC50", "setting": "Leishmania donovani", "result": 3.49, "unit": "µM"}]}, {"smiles": "CN(C)CCN(C)C(=O)Cn1cccc2cc(-c3ccc(F)cc3)nc1-2", "values": [{"measurement": "pIC50", "setting": "[2]", "result": 4.438}, {"measurement": "IC50", "setting": "[2]", "result": 42.9, "unit": "µM"}, {"measurement": "IC50", "setting": "ClpP1P2", "result": "> 100", "unit": "µM"}, {"measurement": "pIC50", "setting": "Plasmodium falciparum", "result": 6.323}, {"measurement": "IC50", "setting": "Plasmodium falciparum", "result": 0.489, "unit": "µM"}, {"measurement": "pIC50", "setting": "Leishmania donovani", "result": 4.872}, {"measurement": "IC50", "setting": "Leishmania donovani", "result": 9.3, "unit": "µM"}]}, {"smiles": "COc1cccc(CNCc2nc3ccccc3c(=O)[nH]2)c1", "values": [{"measurement": "IC50", "setting": "Tryptophan--tRNA ligase", "result": "> 195", "unit": "µM"}, {"measurement": "IC50", "setting": "[2]", "result": 67.4, "unit": "µM"}]}, {"smiles": "CS(=O)(=O)N[C@@H]1CN(C(=O)c2cc3ccccc3s2)C[C@H]1O", "values": [{"measurement": "IC50", "setting": "Tryptophan--tRNA ligase", "result": "> 195", "unit": "µM"}, {"measurement": "IC50", "setting": "[1]", "result": "> 50.1", "unit": "µM"}, {"measurement": "pIC50", "setting": "[2]", "result": 4.54}, {"measurement": "IC50", "setting": "[2]", "result": 24.6, "unit": "µM"}, {"measurement": "IC50", "setting": "[4]", "result": 25.4, "unit": "µM"}]}, {"smiles": "CCN(CC)S(=O)(=O)N1CCCC1c1cccc(Nc2ncc(C)s2)n1", "note": "(stereo not given)", "values": [{"measurement": "IC50", "setting": "[2]", "result": "> 100", "unit": "µM"}, {"measurement": "pIC50", "setting": "Wolbachia pipientis", "result": 5.165}, {"measurement": "IC50", "setting": "Wolbachia pipientis", "result": 8.99, "unit": "µM"}]}, {"smiles": "CS(=O)(=O)N1CCCC1c1cccc(Nc2nccs2)n1", "note": "(stereo not given)", "values": [{"measurement": "IC50", "setting": "[2]", "result": "> 100", "unit": "µM"}, {"measurement": "pIC50", "setting": "Wolbachia pipientis", "result": 5.083}, {"measurement": "IC50", "setting": "Wolbachia pipientis", "result": 9.08, "unit": "µM"}]}]}
